Laboratory results: patent US20050217538A1, “Modified Calcium Phosphate Bone Cement” (TECHNISCHE UNIVERSITAT DRESDEN, priority 2004, published 2005)

Assay: pH, calcium and phosphate contents of the solution surrounding the cement during the setting process
Format: physicochemical
Method: The ion concentrations of the solutions surrounding the cement were determined in that during the setting process samples of the solution were taken regularly and analyzed with regard to pH value (glass electrode), calcium contents and phosphate contents (photometric method), in accordance with the procedure described in connection with Example 2. No deviations into cell and tissue damaging pH ranges (pH<7 and pH>8) were measured. The determined calcium and phosphate ion concentrations were also at a level that is well tolerated by cells and tissue.
The ion concentrations of the solution surrounding the cement were determined in that during the setting process samples of the solution were taken regularly and analyzed with regard to pH value (glass electrode), calcium contents and phosphate contents (photometric method). […]
The ion concentration of the solution surrounding the bone cement was determined in that during the setting process regularly samples of the solution were taken and analyzed with regard to pH value (glass electrode), calcium contents and phosphate contents (photometric method). […] The determined calcium and phosphate ion concentrations were also at a level that is well tolerated by cells and tissue. […]

Cc1ncc(C[n+]2csc(CCO[P@](=O)(O)OP(=O)(O)O)c2C)c(N)n1 [Thiamine pyrophosphate, thiamine pyrophosphate]
calcium concentration of the surrounding medium: approximately 2.5 mmol/l
